Reference: patent US6784191B2, “Benzamidine derivatives” (Ajinomoto Co., Inc., priority 1999, dated 2004)

Experiments:
[1] = molecular target: T1, activated human blood coagulation factor X (Homo sapiens, UniProt P00742); assay: Determination of activity of inhibiting the activated blood-coagulation factor X (chromogenic substrate, initial rate); format: biochemical; conditions: negative logarithm of concentration inhibiting 50% of initial rate, tris hydrochloride buffer pH 8.4, room temperature; for IC50: read-out: Activity of inhibiting activated blood coagulation factor X (pIC50) (converted)
T1 construct: purchased Enzyme Research Co
T1 sequence (P00742 235-488 limits assumed): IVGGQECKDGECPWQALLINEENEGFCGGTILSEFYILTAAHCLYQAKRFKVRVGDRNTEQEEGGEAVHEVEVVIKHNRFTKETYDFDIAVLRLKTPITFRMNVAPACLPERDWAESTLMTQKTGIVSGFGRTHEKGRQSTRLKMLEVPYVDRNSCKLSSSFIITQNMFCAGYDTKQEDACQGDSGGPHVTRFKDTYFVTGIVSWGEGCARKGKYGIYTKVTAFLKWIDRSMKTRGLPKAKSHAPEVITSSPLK
T1 sequence (P00742 41-179 partner limits assumed): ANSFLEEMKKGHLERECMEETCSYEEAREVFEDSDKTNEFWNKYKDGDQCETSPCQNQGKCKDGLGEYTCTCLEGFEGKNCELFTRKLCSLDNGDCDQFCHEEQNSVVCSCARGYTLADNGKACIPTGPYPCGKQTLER
Description: Determination of Activity of Inhibiting the Activated Blood-coagulation Factor X
130 μl of 100 mM tris hydrochloride buffer adjusted to pH 8.4 was added to 10 μl of an aqueous solution of a compound to be tested. Then 10 μl of a 0.5 unit/ml solution of activated human blood coagulation factor X (a product of Enzyme Research Co.) in tris hydrochloride buffer of pH 8.4 was added to the resultant mixture. After the incubation at room temperature for 10 minutes, 50 μl of a solution of N-benzoyl-L-isoleucine-L-glutamine-glycine-L-arginine-P-nitroanilide hydrochloride (a product of Peptide Institute Inc.) adjusted to 0.8 mM with tris hydrochloride (pH 8.4) was added thereto. The absorbance was determined and then the initial reaction rate was determined. A control was prepared in the same manner as that described above except that the solution of the compound to be tested was replaced with 10 μl of tris hydrochloride buffer adjusted to pH 8.4. The absorbance was determined with MICROPLATE READER Model 3550-UV (a product of BIO RAD) at a wave length of 405 nm at intervals of 15 seconds for 16 minutes.

human thrombin = molecular target: T2, human thrombin (Homo sapiens, UniProt P00734); assay: Determination of thrombin-inhibiting activity (S-2238 chromogenic substrate, initial rate); format: biochemical; conditions: negative logarithm of concentration inhibiting 50% of initial rate, tris hydrochloride buffer pH 8.4, room temperature; for IC50: read-out: Thrombin-inhibiting activity (pIC50) (converted)
T2 construct: human thrombin (a product of SIGMA Co.); purchased SIGMA Co
Description: Determination of Thrombin-Inhibiting Activity
130 μl of 100 mM tris hydrochloride buffer adjusted to pH 8.4 was added to 10 μl of an aqueous solution of a test compound. Then 10 μl of a solution of human thrombin (a product of SIGMA Co.) adjusted to 2 units/ml with tris hydrochloride buffer of pH 8.4 was added to the resultant mixture. After the incubation at room temperature for 10 minutes, 50 μl of a solution of D-phenylalanine-L-pipecolyl-L-arginine-P-nitroanilide dihydrochloride (S-2238; a product of Daiichi Kagaku Yakuhin Co.) adjusted to 0.4 mM with tris hydrochloride buffer of pH 8.4 was added thereto. The absorbance was determined and then the initial reaction rate was determined. A control was prepared in the same manner as that described above except that the solution of the compound to be tested was replaced with 10 μl of tris hydrochloride buffer adjusted to pH 8.4. The absorbance was determined with MICROPLATE READER Model 3550-UV (a product of […]) at a wave length of 405 nm at intervals of 15 seconds for 16 minutes.

[2] = test system: blood plasma (prothrombin time); assay: Determination of blood anticoagulating activity by prothrombin time (PT) method; format: biochemical, human; conditions: blood plasma from healthy people, citrate; Sysmex PT II rabbit brain thromboplastin, 37° C.
Description: Determination of Blood Anticoagulating Activity
The blood anticoagulating activity was determined by a prothrombin time (PT) determination method. The PT was determined as follows: The blood was taken from healthy people. 3.8% aqueous trisodium citrate solution was added to the blood in a volume ratio of 1:10. The blood plasma was separated by the centrifugation. 5 μl of DMSO solution containing a test compound was added to 45 μl of the blood plasma. After the incubation at room temperature for 2 minutes, a test tube containing the blood plasma solution was placed in Sysmex CA-3000 fully automatic blood coagulation determination device (a product of Toa Medical Electronics Co., Ltd.), and incubated at 37° C. for 3 minutes. 100 μl of Sysmex PT II (rabbit brain tissue thromboplastin, 13.2 mM calcium chloride; a product of Toa Medical Electronics Co., Ltd.) was fed into the test tube. PT was automatically determined with the device. A sample containing 5 μl of DMSO in place of the solution of the test compound was used as the control. The negative logarithm (pPT2) of the concentration of the test compound which elongated PT of the control to the twice as long was determined, and employed as the index of the blood anticoagulating activity.

Structure (SMILES)	IC50 [1] [nM]	IC50 (human thrombin) [nM]	Thrombin-inhibiting activity (pIC50) (human thrombin)	pPT2 (negative logarithm of the concentration which elongated PT of the control to twice as long) [2]	Activity of inhibiting activated blood coagulation factor X (pIC50) [1]
N=C(N)c1ccc(CCP(=O)(O)O)c(OCCNC(=O)C2CCN(c3ccncc3)CC2)c1 [Compd. of Ex. 1, [2-(4-Amidino-2-[2-[(1-(1-pyridine-4-yl)piperidine-4-carbonyl)amino]ethoxy]phenyl)ethyl]phosphoric acid bistrifluoroacetate]	3.16	> 316000	<3.5	6.8	–
CC(=N)N1CCC(Oc2ccc(C(=O)NCCOc3cc(C(=N)N)ccc3CCP(=O)(O)O)cc2)CC1 [Compd. of Ex. 2]	2.51	> 100000	–	–	–
N=C(N)c1ccc(CCP(=O)(O)O)c(OC[C@H](CCC(=O)O)NC(=O)C2CCN(c3ccncc3)CC2)c1.O=C(O)C(F)(F)F.O=C(O)C(F)(F)F [Compd. of Ex. 4, (4S)-5-(5-amidino-2-(2-phosphorylethyl)phenoxy)-4-((1-(1-pyridine-4-yl)piperidine-4-carbonyl)-amino)pentanoic acid bistrifluoroacetate]	–	–	<4.0	–	8.7

Continued, in another order:

IC50 [1] [nM]	IC50 (human thrombin) [nM]	Structure (SMILES)	Thrombin-inhibiting activity (pIC50) (human thrombin)	pPT2 (negative logarithm of the concentration which elongated PT of the control to twice as long) [2]	Activity of inhibiting activated blood coagulation factor X (pIC50) [1]
2.51	39800	N=C(N)c1ccc(CCP(=O)(O)O)c(OCCNC(=O)c2ccc(C(=O)N3CCCC3)cc2)c1 [Compd. of Ex. 3, [2-(4-Amidino-2-[2-[4-(1-pyrrolidinecarbamoyl)benzoylamino]ethoxy]phenyl)ethyl]phosphoric acid mono-trifluoroacetate]	–	–	–
79.4	> 100000	N/C(=N/O)c1ccc(CCP(=O)(O)O)c(OCCNC(=O)c2ccc(C(=O)N3CCCC3)cc2)c1 [Compd. of Ex. 6, [2-(4-Hydroxylamidino-2-[2-[4-(1-pyrrolidinecarbamoyl)benzoylamino]ethoxy]phenyl)ethyl]phosphoric acid monotrifluoroacetate]	–	–	–
